Read-outs that look alike come from different tables or passages of the source.
Assays:
ALDH2 = target: T1, ALDH2 (Homo sapiens, UniProt P05091); test: Purified ALDH2 assay with propanal, NADH fluorescence; format: biochemical; conditions: purified enzyme
T1 construct: histidine-tag (N); made in house; host or cells: bacterial expression (pETite vector, IPTG induction)
T1 sequence (P05091 18-517): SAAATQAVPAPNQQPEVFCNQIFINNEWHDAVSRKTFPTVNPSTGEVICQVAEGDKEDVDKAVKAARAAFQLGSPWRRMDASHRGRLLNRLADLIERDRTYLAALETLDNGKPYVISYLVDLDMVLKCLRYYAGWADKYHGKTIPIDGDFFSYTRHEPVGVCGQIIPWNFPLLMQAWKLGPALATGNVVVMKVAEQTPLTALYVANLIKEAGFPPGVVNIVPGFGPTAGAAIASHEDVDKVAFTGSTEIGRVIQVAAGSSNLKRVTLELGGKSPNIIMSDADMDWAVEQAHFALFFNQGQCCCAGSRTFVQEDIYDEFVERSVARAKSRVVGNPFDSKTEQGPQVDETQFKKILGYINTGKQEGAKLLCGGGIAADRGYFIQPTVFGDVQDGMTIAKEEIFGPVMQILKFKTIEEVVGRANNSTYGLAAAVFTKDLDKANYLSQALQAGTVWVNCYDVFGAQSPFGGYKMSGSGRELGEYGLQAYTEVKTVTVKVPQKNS
Outline: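 His-tagged human ALDH2 expressed in bacteria and purified. 2 μg enzyme incubated with 20 μM propanal and varying inhibitor concentrations at room temperature. Activity read as NADH fluorescence (Ex 350/Em 460 nm), with initial velocity from two consecutive readings over 1 minute.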

ALDH1A2 = target: T2, ALDH1A2 (Homo sapiens, UniProt O94788); test: Cell-based enzyme assay, retinoic acid production in ALDH1A2/H1299 cells
T2 sequence (O94788 1-518): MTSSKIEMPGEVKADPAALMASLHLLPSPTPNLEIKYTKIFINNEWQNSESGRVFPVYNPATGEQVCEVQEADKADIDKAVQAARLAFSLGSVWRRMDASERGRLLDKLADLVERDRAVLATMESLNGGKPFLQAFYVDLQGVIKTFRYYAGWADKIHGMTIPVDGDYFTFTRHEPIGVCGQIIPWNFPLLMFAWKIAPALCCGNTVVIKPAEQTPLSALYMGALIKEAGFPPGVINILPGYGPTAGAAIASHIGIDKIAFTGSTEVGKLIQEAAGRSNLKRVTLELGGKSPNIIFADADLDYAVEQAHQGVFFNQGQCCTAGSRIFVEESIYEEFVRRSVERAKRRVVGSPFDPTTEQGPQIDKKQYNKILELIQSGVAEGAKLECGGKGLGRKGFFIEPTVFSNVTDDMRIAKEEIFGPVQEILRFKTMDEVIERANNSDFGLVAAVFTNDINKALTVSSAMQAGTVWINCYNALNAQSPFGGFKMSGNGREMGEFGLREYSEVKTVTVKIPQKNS
Outline: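 ALDH1A1- or ALDH1A2-stably transfected H1299 cells grown to confluence, then treated 20 h in serum-free RPMI-1640 with 2 μM all-trans-retinal plus varying inhibitor concentrations at 37 °C. Retinoic acid in cells and media quantified; inhibition from RA levels with vs without inhibitor.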

Compound | IC50 (ALDH2) | EC50 (ALDH1A2; cell-based) | EC50 (ALDH1A2)
CS(=O)(=O)c1ccc(-c2nn(-c3ccc(F)cc3)cc2C(=O)Nc2cccc(F)c2)cc1 [Compound 241, N-(3-Fluorophenyl)-3-[4-(methylsulfonyl)phenyl]-1-(4-fluorophenyl)-1H-pyrazole-4-carboxamide] | 16.6 µM | 0.056 µM | –
O=Cc1cn(-c2ccccc2)nc1-c1ccc(O)cc1 [Cmpd 34] | 18.2 µM | 0.798 µM | –
Cn1cccc1C(=O)N1CCN(c2ccc(-c3ccc([N+](=O)[O-])cc3)c(N3CCCCC3)c2)CC1 [Compound 373] | > 100 µM | – | 0.88 µM
N#Cc1ccc(-n2cc(C(=O)Nc3cccc(F)c3)c(-c3ccc(NC(=O)C(Cl)Cl)cc3)n2)cc1 [Compound 316a, 3-(4-Dichloroacetamidophenyll)-N-(3-fluorophenyl)-1-(4-cyanophenyl)-1H-pyrazole-4-carboxamide] | 4 µM | 0.013 µM | –
CS(=O)(=O)c1ccc(-c2nn(-c3ccccc3)cc2C(=O)Nc2cccc(Cl)c2)cc1 [Compound 219, 3-(4-(Methylsulfonyl)phenyl)-N-(3-chlorophenyl)-1-phenyl-1H-pyrazole-4-carboxamide] | > 25 µM | 0.11 µM | –
CCS(=O)(=O)c1ccc(-c2nn(-c3ccccc3)cc2C(=O)Nc2cccc(F)c2)cc1 [Compound 223, 3-(4-(Ethylsulfonyl)phenyl)-N-(3-fluorophenyl)-1-phenyl-1H-pyrazole-4-carboxamide] | 133 µM | 0.088 µM | –
3-(4-Acryloylphenyl)-1-phenyl-1H-pyrazole-4-carbaldehyde [Compound 309] | > 0.16 µM | 0.87 µM | –
CS(=O)(=O)c1ccc(-c2nn(-c3cccc(F)c3)cc2C(=O)Nc2cccc(C(F)(F)F)c2)cc1 [Compound 266, 1-(3-Fluorophenyl)-N-(3-trifluoromethylphenyl)-3-[4-(methylsulfonyl)phenyl]-1H-pyrazole-4-carboxamide] | 100 µM | 0.354 µM | –
O=C(c1ccccc1)N1CCN(c2ccc([N+](=O)[O-])c(N3CCCC3)c2)CC1 [Compound 339, Phenyl-1-{4-[4-nitro-3-(pyrrolidin-1-yl)phenyl]piperazin-1-yl}methanone] | 48.1 µM | – | 0.293 µM

From patent US11548875B2, “Inhibitor compounds for male contraception” (University of Washington, priority 2018, dated 2023)
